Legend:
Prolyl endopeptidase FAP = target: T1, Prolyl endopeptidase FAP (Homo sapiens, UniProt Q12884); test: Inhibitory activity against recombinant seprase
T1 sequence (Q12884 whole entry): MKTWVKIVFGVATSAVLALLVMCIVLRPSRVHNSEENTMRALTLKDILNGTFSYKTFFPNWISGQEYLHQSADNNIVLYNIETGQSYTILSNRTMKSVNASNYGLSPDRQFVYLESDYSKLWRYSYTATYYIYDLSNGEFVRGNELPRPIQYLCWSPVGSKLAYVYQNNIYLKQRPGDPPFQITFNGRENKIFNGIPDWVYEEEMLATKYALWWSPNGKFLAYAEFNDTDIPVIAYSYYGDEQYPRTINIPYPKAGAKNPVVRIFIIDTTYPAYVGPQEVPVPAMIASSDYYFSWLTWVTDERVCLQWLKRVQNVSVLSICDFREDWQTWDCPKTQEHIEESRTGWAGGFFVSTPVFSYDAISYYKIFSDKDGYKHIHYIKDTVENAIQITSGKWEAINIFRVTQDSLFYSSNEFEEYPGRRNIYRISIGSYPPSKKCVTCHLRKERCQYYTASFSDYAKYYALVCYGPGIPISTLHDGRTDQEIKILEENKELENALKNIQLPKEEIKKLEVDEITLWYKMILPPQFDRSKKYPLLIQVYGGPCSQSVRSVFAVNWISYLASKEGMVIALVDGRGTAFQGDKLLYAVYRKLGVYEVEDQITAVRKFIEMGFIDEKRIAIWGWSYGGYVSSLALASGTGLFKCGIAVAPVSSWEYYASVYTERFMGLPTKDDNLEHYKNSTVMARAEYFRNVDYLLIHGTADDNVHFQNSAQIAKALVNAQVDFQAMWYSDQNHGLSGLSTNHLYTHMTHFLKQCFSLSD

Dipeptidyl peptidase 2 = Dipeptidyl peptidase 2 (Homo sapiens, UniProt Q9UHL4); test: Inhibitory activity against recombinant DPP2
Canis familiaris = test: Gastro-Intestinal toxicity in dog at 10 mg/kg, po; type: organism-based, Canis lupus familiaris; parameters: dose 10 mg/kg, route oral; conditions: in vivo
[1] = Oral bioavailability in rat, po; type: ADME, organism-based; conditions: in vivo
[2] = Half life in rat; type: ADME, organism-based; conditions: in vivo
[3] = Oral bioavailability in rat; type: ADME, organism-based; conditions: in vivo
[4] = Oral bioavailability in dog; type: ADME, organism-based, Canis lupus familiaris; conditions: in vivo
[5] = Half life in dog; type: ADME, organism-based, Canis lupus familiaris; conditions: in vivo
[6] = Half life cyclization at 37 C, pH 7.2; type: ADME
Homo sapiens = species on record: Homo sapiens; test: Inhibition of cytochrome P450

Row | Ki (Prolyl endopeptidase FAP) [µM] | Ki (Dipeptidyl peptidase 2) [µM] | Structure (SMILES) | other results
1 | > 23.4 | – | CC(C)(SCCc1ccccc1)[C@H](N)C(=O)N1C[C@@H](F)C[C@H]1C#N | –
2 | – | > 22.4 | COc1cccc(CS(=O)(=O)C(C)(C)[C@H](N)C(=O)N2C[C@@H](F)C[C@H]2C#N)c1 | –
3 | – | > 22.4 | CC(C)([C@H](N)C(=O)N1C[C@@H](F)C[C@H]1C#N)S(=O)(=O)Cc1csc2ccc(Cl)cc12 | –
4 | – | > 22.4 | CC(C)([C@H](N)C(=O)N1C[C@@H](F)C[C@H]1C#N)S(=O)(=O)Cc1ccc(-c2ccccc2)cc1 | –
5 | > 23.4 | > 22.4 | CC(C)([C@H](N)C(=O)N1C[C@@H](F)C[C@H]1C#N)S(=O)(=O)Cc1ccncc1 | –
6 | > 23.4 | > 22.4 | CC(C)([C@H](N)C(=O)N1C[C@@H](F)C[C@H]1C#N)S(=O)(=O)CCCc1ccccc1 | –
7 | > 23.4 | > 22.4 | CC(C)(SCc1cccnc1)[C@H](N)C(=O)N1C[C@@H](F)C[C@H]1C#N | –
8 | > 23.4 | > 22.4 | COc1ccc(C[S+]([O-])C(C)(C)[C@H](N)C(=O)N2C[C@@H](F)C[C@H]2C#N)cc1 (stereo partly drawn) | –
9 | > 23.4 | > 22.4 | CC(C)([C@H](N)C(=O)N1C[C@@H](F)C[C@H]1C#N)S(=O)(=O)Cc1ccccc1 | –
10 | – | > 22.4 | CC(C)([C@H](N)C(=O)N1C[C@@H](F)C[C@H]1C#N)S(=O)(=O)O | –
11 | – | > 22.4 | CC(C)(SCc1ccncc1)[C@H](N)C(=O)N1C[C@@H](F)C[C@H]1C#N | –
12 | – | > 22.4 | CC(=O)Nc1ccc(CS(=O)(=O)C(C)(C)[C@H](N)C(=O)N2C[C@@H](F)C[C@H]2C#N)cc1 | –
13 | > 23.4 | > 22.4 | CC(C)([C@H](N)C(=O)N1C[C@@H](F)C[C@H]1C#N)S(=O)(=O)Cc1ccc(F)cc1 | –
14 | – | > 22.4 | CC(C)([C@H](N)C(=O)N1C[C@@H](F)C[C@H]1C#N)S(=O)(=O)Cc1ccc(C#N)cc1 | Activity (Canis familiaris): Toxic
15 | – | > 22.4 | CC(C)([C@H](N)C(=O)N1C[C@@H](F)C[C@H]1C#N)S(=O)(=O)Cc1cccc(Oc2ccccc2)c1 | –
16 | > 23.4 | > 22.4 | Cc1ccc(CS(=O)(=O)C(C)(C)[C@H](N)C(=O)N2C[C@@H](F)C[C@H]2C#N)cc1 | –
17 | – | > 22.4 | COc1ccccc1CS(=O)(=O)C(C)(C)[C@H](N)C(=O)N1C[C@@H](F)C[C@H]1C#N | –
18 | > 23.4 | – | CC(C)([C@H](N)C(=O)N1C[C@@H](F)C[C@H]1C#N)S(=O)(=O)Cc1ccc(S(C)(=O)=O)cc1 | bioavailability [1]: < 5%
19 | – | – | COc1ccc(CS(=O)(=O)C(C)(C)[C@H](N)C(=O)N2CCC[C@H]2C#N)cc1 | half-life [2]: 4.2 h; bioavailability [3]: 4%; bioavailability [4]: 100%; half-life [5]: 3 h; half-life [6]: 360 h; IC50 (Homo sapiens): > 15 µM
20 | – | > 22.4 | CC(C)(SCc1ccccn1)[C@H](N)C(=O)N1C[C@@H](F)C[C@H]1C#N | –
21 | > 23.4 | > 22.4 | COc1ccc(CS(=O)(=O)C(C)(C)[C@H](N)C(=O)N2C[C@@H](F)C[C@H]2C#N)cc1 | half-life [2]: 2.3 h; half-life [5]: 3.9 h; IC50 (Homo sapiens): > 15 µM
22 | – | > 22.4 | CC(C)([C@H](N)C(=O)N1C[C@@H](F)C[C@H]1C#N)S(=O)(=O)Cc1ccc(OCc2ccccc2)cc1 | –
23 | > 23.4 | – | CC(C)(SCc1ccc(C(F)(F)F)cc1)[C@H](N)C(=O)N1C[C@@H](F)C[C@H]1C#N | –
24 | – | > 22.4 | CC(=O)NCSC(C)(C)[C@H](N)C(=O)N1C[C@@H](F)C[C@H]1C#N | –
25 | > 23.4 | – | COc1ccc(CSC(C)(C)[C@H](N)C(=O)N2C[C@@H](F)C[C@H]2C#N)cc1 | –

— ChEMBL document CHEMBL1141969, “2-Cyano-4-fluoro-1-thiovalylpyrrolidine analogues as potent inhibitors of DPP-IV” (Bioorg Med Chem Lett, 2005)
